#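 Interpolation was linear, between the two tested concentrations surrounding the appropriate level; five concentrations were tested over 48 hours in 96-well plates. The concentration for full growth arrest is given as TGI.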
# Columns and labels:
# Experiment in all cases: NCI anticancer screen, dose series, 48 h
# 786-0 renal = tested on: 786-0 renal
# A498 renal = tested on: A498 renal
# A549 NSCLC = tested on: A549 NSCLC
# ACHN renal = tested on: ACHN renal
# BT-549 breast = tested on: BT-549 breast
# CAKI-1 renal = tested on: CAKI-1 renal
# CCRF-CEM leukemia = tested on: CCRF-CEM leukemia
# COLO 205 colon = tested on: COLO 205 colon
# DU-145 prostate = tested on: DU-145 prostate
# EKVX NSCLC = tested on: EKVX NSCLC
# HCC-2998 colon = tested on: HCC-2998 colon
# HCT-116 colon = tested on: HCT-116 colon
# HCT-15 colon = tested on: HCT-15 colon
# HL-60(TB) leukemia = tested on: HL-60(TB) leukemia
# HOP-62 NSCLC = tested on: HOP-62 NSCLC
# HOP-92 NSCLC = tested on: HOP-92 NSCLC
# HS 578T breast = tested on: HS 578T breast
# HT29 colon = tested on: HT29 colon
# IGROV1 ovarian = tested on: IGROV1 ovarian
# K-562 leukemia = tested on: K-562 leukemia
# KM12 colon = tested on: KM12 colon
# LOX IMVI melanoma = tested on: LOX IMVI melanoma
# M14 melanoma = tested on: M14 melanoma
# MALME-3M melanoma = tested on: MALME-3M melanoma
# MCF7 breast = tested on: MCF7 breast
# MDA-MB-231 breast = tested on: MDA-MB-231 breast
# MDA-MB-435 = tested on: MDA-MB-435
# MDA-N = tested on: MDA-N
# MOLT-4 leukemia = tested on: MOLT-4 leukemia
# NCI-H226 lung = tested on: NCI-H226 lung
# NCI-H23 lung = tested on: NCI-H23 lung
# NCI-H460 lung = tested on: NCI-H460 lung
# NCI-H522 lung = tested on: NCI-H522 lung
# OVCAR-3 ovarian = tested on: OVCAR-3 ovarian
# OVCAR-4 ovarian = tested on: OVCAR-4 ovarian
# OVCAR-8 ovarian = tested on: OVCAR-8 ovarian
# PC-3 prostate = tested on: PC-3 prostate
# RPMI-8226 leukemia = tested on: RPMI-8226 leukemia
# SF-268 CNS = tested on: SF-268 CNS
# SF-295 CNS = tested on: SF-295 CNS
# SF-539 CNS = tested on: SF-539 CNS
# SK-MEL-2 melanoma = tested on: SK-MEL-2 melanoma
# SK-MEL-28 melanoma = tested on: SK-MEL-28 melanoma
# SK-MEL-5 melanoma = tested on: SK-MEL-5 melanoma
# SK-OV-3 ovarian = tested on: SK-OV-3 ovarian
# SN12C renal = tested on: SN12C renal
# SNB-19 CNS = tested on: SNB-19 CNS
# SR leukemia = tested on: SR leukemia
# SW-620 colon = tested on: SW-620 colon
# T-47D breast = tested on: T-47D breast
# TK-10 renal = tested on: TK-10 renal
# U251 CNS = tested on: U251 CNS
# UACC-257 melanoma = tested on: UACC-257 melanoma
# UACC-62 melanoma = tested on: UACC-62 melanoma
# UO-31 renal = tested on: UO-31 renal
# NCI/ADR-RES ovarian = tested on: NCI/ADR-RES ovarian
# OVCAR-5 ovarian = tested on: OVCAR-5 ovarian
# RXF 393 renal = tested on: RXF 393 renal
# SNB-75 CNS = tested on: SNB-75 CNS
smiles,measurement,setting,value
O=c1cc(-c2ccccc2)oc2cc(Oc3nnnn3-c3ccccc3)ccc12,TGI,786-0 renal,> 100 µM
same,TGI,A498 renal,79.6 µM
same,TGI,A549 NSCLC,> 100 µM
same,TGI,ACHN renal,13.9 µM
same,TGI,BT-549 breast,52.1 µM
same,TGI,CAKI-1 renal,20.4 µM
same,TGI,CCRF-CEM leukemia,> 100 µM
same,TGI,COLO 205 colon,> 100 µM
same,TGI,DU-145 prostate,94.1 µM
same,TGI,EKVX NSCLC,> 100 µM
same,TGI,HCC-2998 colon,> 100 µM
same,TGI,HCT-116 colon,> 100 µM
same,TGI,HCT-15 colon,> 100 µM
same,TGI,HL-60(TB) leukemia,> 100 µM
same,TGI,HOP-62 NSCLC,> 100 µM
same,TGI,HOP-92 NSCLC,9.17 µM
same,TGI,HS 578T breast,89.5 µM
same,TGI,HT29 colon,> 100 µM
same,TGI,IGROV1 ovarian,> 100 µM
same,TGI,K-562 leukemia,> 100 µM
same,TGI,KM12 colon,> 100 µM
same,TGI,LOX IMVI melanoma,> 100 µM
same,TGI,M14 melanoma,> 100 µM
same,TGI,MALME-3M melanoma,> 100 µM
same,TGI,MCF7 breast,37.8 µM
same,TGI,MDA-MB-231 breast,> 100 µM
same,TGI,MDA-MB-435,46 µM
same,TGI,MDA-N,> 100 µM
same,TGI,MOLT-4 leukemia,> 100 µM
same,TGI,NCI-H226 lung,> 100 µM
same,TGI,NCI-H23 lung,> 100 µM
same,TGI,NCI-H460 lung,> 100 µM
same,TGI,NCI-H522 lung,> 100 µM
same,TGI,OVCAR-3 ovarian,> 100 µM
same,TGI,OVCAR-4 ovarian,70.9 µM
same,TGI,OVCAR-8 ovarian,> 100 µM
same,TGI,PC-3 prostate,> 100 µM
same,TGI,RPMI-8226 leukemia,> 100 µM
same,TGI,SF-268 CNS,52.2 µM
same,TGI,SF-295 CNS,> 100 µM
same,TGI,SF-539 CNS,85.4 µM
same,TGI,SK-MEL-2 melanoma,97.3 µM
same,TGI,SK-MEL-28 melanoma,> 100 µM
same,TGI,SK-MEL-5 melanoma,42.4 µM
same,TGI,SK-OV-3 ovarian,> 100 µM
same,TGI,SN12C renal,> 100 µM
same,TGI,SNB-19 CNS,> 100 µM
same,TGI,SR leukemia,> 100 µM
same,TGI,SW-620 colon,> 100 µM
same,TGI,T-47D breast,79.7 µM
same,TGI,TK-10 renal,> 100 µM
same,TGI,U251 CNS,41.4 µM
same,TGI,UACC-257 melanoma,90.9 µM
same,TGI,UACC-62 melanoma,> 100 µM
same,TGI,UO-31 renal,33.1 µM
Cc1ccc2nc(-c3ccc(N)c(Br)c3)sc2c1,TGI,786-0 renal,> 100 µM
same,TGI,A498 renal,> 100 µM
same,TGI,A549 NSCLC,> 100 µM
same,TGI,ACHN renal,> 100 µM
same,TGI,BT-549 breast,35.9 µM
same,TGI,CAKI-1 renal,> 100 µM
same,TGI,CCRF-CEM leukemia,45.7 µM
same,TGI,COLO 205 colon,> 100 µM
same,TGI,DU-145 prostate,> 100 µM
same,TGI,EKVX NSCLC,58 µM
same,TGI,HCC-2998 colon,14.8 µM
same,TGI,HCT-116 colon,> 100 µM
same,TGI,HCT-15 colon,> 100 µM
same,TGI,HL-60(TB) leukemia,> 100 µM
same,TGI,HOP-62 NSCLC,26.2 µM
same,TGI,HOP-92 NSCLC,50.6 µM
same,TGI,HS 578T breast,43.6 µM
same,TGI,HT29 colon,> 100 µM
same,TGI,K-562 leukemia,> 100 µM
same,TGI,KM12 colon,30.8 µM
same,TGI,LOX IMVI melanoma,30.4 µM
same,TGI,M14 melanoma,> 100 µM
same,TGI,MALME-3M melanoma,> 100 µM
same,TGI,MDA-MB-231 breast,86.4 µM
same,TGI,MDA-MB-435,64.1 µM
same,TGI,MDA-N,> 100 µM
same,TGI,MOLT-4 leukemia,97.5 µM
same,TGI,NCI-H226 lung,> 100 µM
same,TGI,NCI-H23 lung,96.9 µM
same,TGI,NCI-H460 lung,31.5 µM
same,TGI,NCI-H522 lung,47.7 µM
same,TGI,NCI/ADR-RES ovarian,> 100 µM
same,TGI,OVCAR-3 ovarian,40.1 µM
same,TGI,OVCAR-4 ovarian,> 100 µM
same,TGI,OVCAR-5 ovarian,> 100 µM
same,TGI,OVCAR-8 ovarian,> 100 µM
same,TGI,PC-3 prostate,> 100 µM
same,TGI,RXF 393 renal,50 µM
same,TGI,SF-268 CNS,> 100 µM
same,TGI,SF-295 CNS,> 100 µM
same,TGI,SF-539 CNS,> 100 µM
same,TGI,SK-MEL-2 melanoma,73.4 µM
same,TGI,SK-MEL-28 melanoma,> 100 µM
same,TGI,SK-MEL-5 melanoma,> 100 µM
same,TGI,SK-OV-3 ovarian,88.4 µM
same,TGI,SN12C renal,> 100 µM
same,TGI,SNB-19 CNS,> 100 µM
same,TGI,SR leukemia,43.2 µM
same,TGI,T-47D breast,59.7 µM
same,TGI,U251 CNS,> 100 µM
same,TGI,UACC-257 melanoma,72.2 µM
same,TGI,UACC-62 melanoma,> 100 µM
same,TGI,UO-31 renal,35.4 µM
COc1cc(OC)cc(-n2c(N)c(C#N)c3ccc([N+](=O)[O-])cc3c2=O)c1,TGI,786-0 renal,39.5 µM
same,TGI,A498 renal,41.6 µM
same,TGI,A549 NSCLC,> 100 µM
same,TGI,ACHN renal,> 100 µM
same,TGI,BT-549 breast,> 100 µM
same,TGI,CAKI-1 renal,90.8 µM
same,TGI,COLO 205 colon,> 100 µM
same,TGI,DU-145 prostate,47.1 µM
same,TGI,HCC-2998 colon,> 100 µM
same,TGI,HCT-116 colon,> 100 µM
same,TGI,HCT-15 colon,> 100 µM
same,TGI,HOP-92 NSCLC,44.9 µM
same,TGI,HS 578T breast,87.6 µM
same,TGI,HT29 colon,> 100 µM
same,TGI,K-562 leukemia,> 100 µM
same,TGI,KM12 colon,> 100 µM
same,TGI,LOX IMVI melanoma,> 100 µM
same,TGI,MDA-MB-231 breast,96.2 µM
same,TGI,MDA-MB-435,> 100 µM
same,TGI,MDA-N,> 100 µM
same,TGI,NCI-H226 lung,51.6 µM
same,TGI,NCI-H23 lung,> 100 µM
same,TGI,NCI-H460 lung,> 100 µM
same,TGI,NCI/ADR-RES ovarian,> 100 µM
same,TGI,OVCAR-4 ovarian,52 µM
same,TGI,OVCAR-8 ovarian,59.2 µM
same,TGI,PC-3 prostate,> 100 µM
same,TGI,RPMI-8226 leukemia,> 100 µM
same,TGI,SF-268 CNS,> 100 µM
same,TGI,SK-MEL-2 melanoma,> 100 µM
same,TGI,SK-MEL-28 melanoma,> 100 µM
same,TGI,SK-MEL-5 melanoma,> 100 µM
same,TGI,SN12C renal,52.3 µM
same,TGI,SNB-19 CNS,40.4 µM
same,TGI,SNB-75 CNS,60.6 µM
same,TGI,SR leukemia,55.8 µM
same,TGI,SW-620 colon,> 100 µM
same,TGI,T-47D breast,> 100 µM
same,TGI,TK-10 renal,69 µM
same,TGI,U251 CNS,52.4 µM
same,TGI,UACC-257 melanoma,> 100 µM
same,TGI,UACC-62 melanoma,> 100 µM
same,TGI,UO-31 renal,74.9 µM

# — PubChem BioAssay (NCI)
